# Results: patent US20230406831A1, “COMPOUNDS AND METHODS OF INHIBITING BACTERIAL CHAPERONIN SYSTEMS” (THE TRUSTEES OF INDIANA UNIVERSITY, priority 2020, published 2023)
# Like-named read-outs stand apart in the source and are kept apart here.
# Experiments:
# [1] = HEK 293 kidney cell viability / cytotoxicity assay (Alamar Blue); format: cell-based; details: human, 48 h incubation, Alamar Blue, read-out: HEK 293 Kidney Cell Viability CC50
# Method: Evaluating compound effects on kidney cell viability.
# HEK 293 cells were maintained in MEM medium (Corning Cellgro, 10-009 CV) supplemented with 10% FBS (Sigma, F2242). […] Cells at 80% confluence were harvested and diluted in growth medium, then 45 μL of the HEK 293 cells (1,500 cells/well) were dispensed per well, and plates were sealed with “Breathe Easy” oxygen permeable membranes (Diversified Biotech) and incubated at 37° C., 5% CO2, for 24 h. […] Plates were sealed with “Breathe Easy” oxygen permeable membranes and incubated for an additional 48 h at 37° C. and 5% CO2. The Alamar Blue reporter reagents were then added to a final concentration of 10%, the plates incubated at 37° C. and 5% CO2, and sample fluorescence (535 nm excitation, 590 nm emission) was read using a Molecular Devices FlexStation II 384-well plate reader (readings taken between 4-24 h of incubation so as to achieve signals in the 30-60% range for conversion of resazurin to resorufin). Cell viability was calculated as per vendor instructions (Thermo Fisher—Alamar Blue cell viability assay manual).
# [2] = system: S. aureus; assay: S. aureus bacterial proliferation assay; format: cell-based; details: cation adjusted BHI media, OD600 at 6-8 h; for S. aureus Proliferation EC50: Table 2; for EC50: Staphylococcus aureus, Table 3, read-out: S. aureus Proliferation EC50
# Method: Evaluation of compounds for inhibition of bacterial cell proliferation.
# Growth Media: S. aureus bacteria were grown in Brain Heart Infusion (BHI) broth/agar (Becton, Dickinson and Company). All liquid cultures were grown in BHI media supplemented with 25 mg/L Ca^2+ and 12.5 mg/L Mg^2+ to mimic free physiological concentrations of these cations. A 10 mg/mL Ca^2+ stock solution was prepared by dissolving 3.68 g of CaCl2·2H^2O in 100 mL of deionized water, and a 10 mg/mL Mg^2+ stock solution was prepared by dissolving 8.36 g of […] in 100 mL deionized water. Both stock solutions were filter-sterilized using 0.2 μm pore size cellulose-acetate filters. 2.5 mL of the sterile 10 mg/mL Ca^2+ stock and 1.25 mL of the sterile 10 mg/mL Mg^2+ stock solutions were added per 1 L of autoclaved BHI medium to obtain 25 mg/L Ca^2+ and 12.5 mg/L Mg^2+ ions, respectively.
# General Assay Protocol: Stock bacterial cultures were streaked onto BHI agar plates and grown overnight at 37° C. Fresh aliquots of broth were inoculated with single bacterial colonies and the cultures were grown overnight at 37° C. with shaking (240 rpm) in cation adjusted BHI media. The following morning, the overnight cultures were sub-cultured (1:5 dilution) into fresh aliquots of cation adjusted BHI media and grown at 37° C. for 1-2 hours with shaking. After 2 h, cultures were diluted into fresh media to achieve final OD600 readings of 0.017. Aliquots of these diluted cultures (30 μL) were added to clear, flat-bottom, 384-well polystyrene plates that were stamped with 0.5 μL of test compounds in 20 μL media. Compounds were evaluated in dose-response format where the inhibitor concentration range during the proliferation assay was 100 μM to 46 nM (3-fold dilution series). Plates were sealed with “Breathe Easy” oxygen permeable membranes (Diversified Biotech) and left to incubate at 37° C. without shaking (stagnant assay). OD600 nm readings were taken generally at 6-8 h, when bacteria had reached log-phase growth. A second set of baseline control plates were prepared analogously, but without any bacteria added, to correct for possible compound absorbance and/or precipitation. Plates were then read at 600 nm using a Molecular Devices SpectraMax Plus384 microplate reader. EC50 values for the test compounds were obtained by plotting the OD600 results in GraphPad Prism and analyzing by non-linear regression using the log(inhibitor) vs. response (variable slope) equation. For results, see Tables 1, 2, and 3.
smiles,measurement,setting,value
"Cc1cc(C(C#N)c2ccc(Cl)cc2)c(Cl)cc1NC(=O)c1cccc([N+](=O)[O-])c1 (centres unmarked) [Compound 68, N-(5-chloro-4-((4-chlorophenyl)(cyano)methyl)-2-methylphenyl)-3-nitrobenzamide]",CC50 at 48 h,"[1]; HEK 293 kidney cells, Table 2",> 100 µM
same,S. aureus Proliferation EC50,[2],> 100 µM
"Cc1cc(C(C#N)c2ccc(Cl)cc2)c(Cl)cc1NC(=O)c1ccc([N+](=O)[O-])cc1 (centres unmarked) [Compound 69, N-(5-chloro-4-((4-chlorophenyl)(cyano)methyl)-2-methylphenyl)-4-nitrobenzamide]",CC50 at 48 h,"[1]; HEK 293 kidney cells, Table 2",> 100 µM
same,S. aureus Proliferation EC50,[2],> 100 µM
"Cc1cc(C(C#N)c2ccc(Cl)cc2)c(Cl)cc1NC(=O)c1ccccc1N (centres unmarked) [Compound 70, 2-amino-N-(5-chloro-4-((4-chlorophenyl)(cyano)methyl)-2-methylphenyl)benzamide]",CC50 at 48 h,"[1]; HEK 293 kidney cells, Table 2",32 µM
same,S. aureus Proliferation EC50,[2],> 100 µM
"Cc1cc(C(C#N)c2ccc(Cl)cc2)c(Cl)cc1NC(=O)c1cccc(N)c1 (centres unmarked) [Compound 71, 3-amino-N-(5-chloro-4-((4-chlorophenyl)(cyano)methyl)-2-methylphenyl)benzamide]",CC50 at 48 h,"[1]; HEK 293 kidney cells, Table 2",35 µM
same,S. aureus Proliferation EC50,[2],> 100 µM
"Cc1cc(C(C#N)c2ccc(Cl)cc2)c(Cl)cc1NC(=O)c1ccc(N)cc1 (centres unmarked) [Compound 72, 4-amino-N-(5-chloro-4-((4-chlorophenyl)(cyano)methyl)-2-methylphenyl)benzamide]",CC50 at 48 h,"[1]; HEK 293 kidney cells, Table 2",53 µM
same,S. aureus Proliferation EC50,[2],> 100 µM
"Cc1cc(C(C#N)c2ccc(Cl)cc2)c(Cl)cc1NC(=O)c1ccccc1Br (centres unmarked) [Compound 73, 2-bromo-N-(5-chloro-4-((4-chlorophenyl)(cyano)methyl)-2-methylphenyl)benzamide]",CC50 at 48 h,[1]; Table 2,> 100 µM
same,S. aureus Proliferation EC50,[2],> 100 µM
"Cc1cc(C(C#N)c2ccc(Cl)cc2)c(Cl)cc1NC(=O)c1cccc(Br)c1 (centres unmarked) [Compound 74, 3-bromo-N-(5-chloro-4-((4-chlorophenyl)(cyano)methyl)-2-methylphenyl)benzamide]",CC50 at 48 h,"[1]; HEK 293 kidney cells, Table 2",> 100 µM
same,S. aureus Proliferation EC50,[2],> 100 µM
"Cc1cc(C(C#N)c2ccc(Cl)cc2)c(Cl)cc1NC(=O)c1ccc(Br)cc1 (centres unmarked) [Compound 75, 4-bromo-N-(5-chloro-4-((4-chlorophenyl)(cyano)methyl)-2-methylphenyl)benzamide]",CC50 at 48 h,"[1]; HEK 293 kidney cells, Table 2",33 µM
same,S. aureus Proliferation EC50,[2],> 100 µM
"Cc1cc(C(C#N)c2ccc(Cl)cc2)c(Cl)cc1NC(=O)c1ccccc1Cl (centres unmarked) [Compound 76, 2-chloro-N-(5-chloro-4-((4-chlorophenyl)(cyano)methyl)-2-methylphenyl)benzamide]",CC50 at 48 h,[1]; Table 2,> 100 µM
same,S. aureus Proliferation EC50,[2],> 100 µM
"Cc1cc(C(C#N)c2ccc(Cl)cc2)c(Cl)cc1NC(=O)c1cccc(Cl)c1 (centres unmarked) [Compound 77, 3-chloro-N-(5-chloro-4-((4-chlorophenyl)(cyano)methyl)-2-methylphenyl)benzamide]",CC50 at 48 h,"[1]; HEK 293 kidney cells, Table 2",> 100 µM
same,S. aureus Proliferation EC50,[2],> 100 µM
"Cc1cc(C(C#N)c2ccc(Cl)cc2)c(Cl)cc1NC(=O)c1ccc(Cl)cc1 (centres unmarked) [Compound 78, 4-chloro-N-(5-chloro-4-((4-chlorophenyl)(cyano)methyl)-2-methylphenyl)benzamide]",CC50 at 48 h,"[1]; HEK 293 kidney cells, Table 2",50 µM
same,S. aureus Proliferation EC50,[2],> 100 µM
"Cc1cc(C(C#N)c2ccc(Cl)cc2)c(Cl)cc1NC(=O)c1ccccc1F (centres unmarked) [Compound 79, N-(5-chloro-4-((4-chlorophenyl)(cyano)methyl)-2-methylphenyl)-2-fluorobenzamide]",CC50 at 48 h,"[1]; HEK 293 kidney cells, Table 2",85 µM
same,S. aureus Proliferation EC50,[2],> 100 µM
"Cc1cc(C(C#N)c2ccc(Cl)cc2)c(Cl)cc1NC(=O)c1cccc(F)c1 (centres unmarked) [Compound 80, N-(5-chloro-4-((4-chlorophenyl)(cyano)methyl)-2-methylphenyl)-3-fluorobenzamide]",CC50 at 48 h,"[1]; HEK 293 kidney cells, Table 2",70 µM
same,S. aureus Proliferation EC50,[2],> 100 µM
"Cc1cc(C(C#N)c2ccc(Cl)cc2)c(Cl)cc1NC(=O)c1ccc(F)cc1 (centres unmarked) [Compound 81, N-(5-chloro-4-((4-chlorophenyl)(cyano)methyl)-2-methylphenyl)-4-fluorobenzamide]",CC50 at 48 h,[1]; Table 2,78 µM
same,S. aureus Proliferation EC50,[2],> 100 µM
"Cc1cc(C(C#N)c2ccc(Cl)cc2)c(Cl)cc1NC(=O)c1ccccc1 (centres unmarked) [Compound 82, N-(5-chloro-4-((4-chlorophenyl)(cyano)methyl)-2-methylphenyl)benzamide]",CC50 at 48 h,[1]; Table 2,47 µM
same,S. aureus Proliferation EC50,[2],> 100 µM
"CC(=O)Nc1cc(Cl)c(C(C#N)c2ccc(Cl)cc2)cc1C (centres unmarked) [Compound 83, N-(5-chloro-4-((4-chlorophenyl)(cyano)methyl)-2-methylphenyl)acetamide]",CC50 at 48 h,"[1]; HEK 293 kidney cells, Table 2",83 µM
same,S. aureus Proliferation EC50,[2],> 100 µM
"COc1ccc(Cl)cc1C(=O)Nc1ccc(C(C#N)c2ccccc2)cc1 (centres unmarked) [Compound 84, 5-chloro-N-(4-(cyano(phenyl)methyl)phenyl)-2-methoxybenzamide]",CC50 at 48 h,"[1]; HEK 293 kidney cells, Table 3",> 100 µM
same,EC50,[2],> 100 µM
"N#CC(c1ccccc1)c1ccc(NC(=O)c2cc(Cl)ccc2O)cc1 (centres unmarked) [Compound 85, 5-chloro-N-(4-(cyano(phenyl)methyl)phenyl)-2-hydroxybenzamide]",CC50 at 48 h,"[1]; HEK 293 kidney cells, Table 3",29 µM
same,EC50,[2],1.1 µM
"COc1ccc(Cl)cc1C(=O)Nc1ccc(Oc2ccc(Cl)cc2)c(Cl)c1 [Compound 86, 5-chloro-N-(3-chloro-4-(4-chlorophenoxy)phenyl)-2-methoxybenzamide]",CC50 at 48 h,"[1]; HEK 293 kidney cells, Table 3",> 100 µM
same,EC50,[2],> 100 µM
"O=C(Nc1ccc(Oc2ccc(Cl)cc2)c(Cl)c1)c1cc(Cl)ccc1O [Compound 87, 5-chloro-N-(3-chloro-4-(4-chlorophenoxy)phenyl)-2-hydroxybenzamide]",CC50 at 48 h,[1]; Table 3,10 µM
same,EC50,[2],0.17 µM
"COc1ccc(Cl)cc1C(=O)Nc1ccc(Oc2ccc(Cl)cc2)cc1 [Compound 88, 5-chloro-N-(4-(4-chlorophenoxy)phenyl)-2-methoxybenzamide]",CC50 at 48 h,"[1]; HEK 293 kidney cells, Table 3",> 100 µM
same,EC50,[2],> 100 µM
"O=C(Nc1ccc(Oc2ccc(Cl)cc2)cc1)c1cc(Cl)ccc1O [Compound 89, 5-chloro-N-(4-(4-chlorophenoxy)phenyl)-2-hydroxybenzamide]",CC50 at 48 h,[1]; Table 3,15 µM
same,EC50,[2],0.36 µM
"COc1ccc(Cl)cc1C(=O)Nc1ccc(Oc2ccccc2)c(Cl)c1 [Compound 90, 5-chloro-N-(3-chloro-4-phenoxyphenyl)-2-methoxybenzamide]",CC50 at 48 h,"[1]; HEK 293 kidney cells, Table 3",> 100 µM
same,EC50,[2],> 100 µM
"O=C(Nc1ccc(Oc2ccccc2)c(Cl)c1)c1cc(Cl)ccc1O [Compound 91, 5-chloro-N-(3-chloro-4-phenoxyphenyl)-2-hydroxybenzamide]",CC50 at 48 h,[1]; Table 3,4.7 µM
same,EC50,[2],0.21 µM
"COc1ccc(Cl)cc1C(=O)Nc1ccc(Oc2ccccc2)cc1 [Compound 92, 5-chloro-2-methoxy-N-(4-phenoxyphenyl)benzamide]",CC50 at 48 h,"[1]; HEK 293 kidney cells, Table 3",> 100 µM
same,EC50,[2],> 100 µM
"O=C(Nc1ccc(Oc2ccccc2)cc1)c1cc(Cl)ccc1O [Compound 93, 5-chloro-2-hydroxy-N-(4-phenoxyphenyl)benzamide]",CC50 at 48 h,"[1]; HEK 293 kidney cells, Table 3",20 µM
same,EC50,[2],0.36 µM
"COc1ccc(Cl)cc1C(=O)Nc1ccc(Sc2nc3ccccc3s2)c(Cl)c1 [Compound 94, N-(4-(benzo[d]thiazol-2-ylthio)-3-chlorophenyl)-5-chloro-2-methoxybenzamide]",CC50 at 48 h,"[1]; HEK 293 kidney cells, Table 3",> 100 µM
same,EC50,[2],> 100 µM
"O=C(Nc1ccc(Sc2nc3ccccc3s2)c(Cl)c1)c1cc(Cl)ccc1O [Compound 95, N-(4-(benzo[d]thiazol-2-ylthio)-3-chlorophenyl)-5-chloro-2-hydroxybenzamide]",CC50 at 48 h,"[1]; HEK 293 kidney cells, Table 3",83 µM
same,EC50,[2],0.14 µM
